{"source": "paper PMC10331583", "about": "“Control of fibrosis with enhanced safety via asymmetric inhibition of prolyl‐tRNA synthetase 1” (EMBO Molecular Medicine, 2023)", "key": {"WI‐26 VA4 cells [1]": {"tested_on": "WI‐26 VA4 cells", "assay": "Puromycin incorporation assay", "type": "cell-based, human", "conditions": "for activity at 0.001 µM: WI26VA4, 1 nM; for activity at 0.01 µM: WI26VA4, 10 nM; for activity at 0.03 µM: WI26VA4, 30 nM; for activity at 0.1 µM: WI26VA4, 100 nM; for activity at 1 µM: WI26VA4, 1000 nM; for activity at 3 µM: WI26VA4, 3000 nM", "method_in_brief": "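WI‐26 VA4 cell lysates prepared in carbonate-bicarbonate buffer with protease inhibitor; 400 ng protein coated on ELISA plates 18 h at 4°C. Puromycin incorporated into proteins detected by antibody ELISA, absorbance 450 nm with 620 nm reference; outlier values excluded based on replicates and adjacent concentrations.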"}, "[2]": {"tested_on": "TNT Quick Coupled Transcription/Translation System (luciferase synthesis)", "type": "biochemical"}, "WI‐26 VA4 cells [3]": {"tested_on": "WI‐26 VA4 cells", "assay": "Collagen ELISA (secreted pro‐collagen I)", "conditions": "Homo sapiens", "experimental": "WI‐26 VA4 cells were seeded at 3.5 × 10^4 cells/well on 24 well plates. After 24 h, the cells were starved of serum for 6 h. Then, the cells were incubated with the indicated concentrations of compounds in the presence of TGF‐β (2 ng/ml) (R&D systems, 240‐B‐002) for 72 h. The supernatant of the cells was collected and centrifuged at 500 g for 5 min to remove cell debris. Then, the level of pro‐collagen I in the supernatant was determined using Human Pro‐collagen I alpha 1 DuoSet ELISA (R&D systems, DY6220‐05) and DuoSet ELISA Ancillary Reagent Kit 2 (R&D systems, DY008) following the manufacturer's instructions."}, "[4]": {"conditions": "Homo sapiens, read-out: Puromycin, % of control, average"}, "[5]": {"conditions": "Homo sapiens, read-out: Puromycin, % of control, single replicate"}}, "note": "pIC50: −log10 of the molar value. Values joined by “and” are separate entries in the source; they are usually repeats but may differ in a detail not shown here. Equal entries are not always repeated. Where two headings read alike, the source gives them in different places.", "data": [{"smiles": "O=C(CC1NCCCC1O)Cn1cnc2cc(Br)c(Cl)cc2c1=O", "note": "(stereo not shown) [HF, Halofuginone, reference compound]", "values": [{"measurement": "Puromycin, % of control, single replicate", "setting": "WI‐26 VA4 cells [1]; 3 nM, 0.003 µM", "value": "87.66 % of control and 110.89 % of control and 102.72 % of control and 101.10 % of control and 86.71 % of control and 84.36 % of control and 98.41 % of control and 95.09 % of control and 95.08 % of control and 108.41 % of control and 105.39 % of control and 104.60 % of control"}, {"measurement": "Puromycin, % of control, single replicate", "setting": "WI‐26 VA4 cells [1]; 10 nM, 0.01 µM", "value": "100.34 % of control and 96.77 % of control and 97.76 % of control and 87.44 % of control and 83.58 % of control and 96.23 % of control and 94.53 % of control"}, {"measurement": "Puromycin, % of control, single replicate", "setting": "WI‐26 VA4 cells [1]; 30 nM, 0.03 µM", "value": "113.27 % of control and 109.87 % of control and 110.26 % of control and 116.66 % of control and 114.17 % of control and 107.05 % of control and 108.24 % of control and 108.11 % of control and 111.56 % of control and 111.23 % of control and 110.22 % of control"}, {"measurement": "Puromycin, % of control, single replicate", "setting": "WI‐26 VA4 cells [1]; 100 nM, 0.1 µM", "value": "90.48 % of control and 92.59 % of control and 92.61 % of control and 84.84 % of control and 84.75 % of control and 85.14 % of control and 85.25 % of control and 85.34 % of control and 84.22 % of control"}, {"measurement": "Puromycin, % of control, single replicate", "setting": "WI‐26 VA4 cells [1]; 300 nM, 0.3 µM", "value": "10.84 % of control and 35.41 % of control and 34.99 % of control and 10.87 % of control and 10.33 % of control and 31.26 % of control and 32.35 % of control and 31.90 % of control and 32.62 % of control and 32.23 % of control and 32.21 % of control"}, {"measurement": "Puromycin, % of control, single replicate", "setting": "WI‐26 VA4 cells [1]; 3000 nM, 3 µM", "value": "3.08 % of control (2×) and 2.96 % of control and 3.28 % of control and 2.21 % of control and 2.18 % of control and 2.60 % of control and 2.20 % of control and 3.16 % of control and 3.05 % of control"}, {"measurement": "Puromycin, % of control, single replicate", "setting": "WI‐26 VA4 cells [1]; 10000 nM, 10 µM", "value": "3.89 % of control and 1.98 % of control and 2.07 % of control and 2.17 % of control and 4.12 % of control and 4.05 % of control and 1.27 % of control and 1.14 % of control and 1.39 % of control and 2.12 % of control and 2.04 % of control"}, {"measurement": "Puromycin, % of control, single replicate", "setting": "WI‐26 VA4 cells [1]; 30000 nM, 30 µM", "value": "2.04 % of control and 1.64 % of control and 1.93 % of control and 3.75 % of control and 1.32 % of control and 1.84 % of control and 1.82 % of control and 1.41 % of control"}, {"measurement": "activity at 0.001 µM", "setting": "WI‐26 VA4 cells [1]; [4]", "value": 102, "unit": "%"}, {"measurement": "activity at 0.001 µM", "setting": "WI‐26 VA4 cells [1]; [5]", "value": 101, "unit": "%"}, {"measurement": "activity at 0.003 µM", "setting": "WI‐26 VA4 cells [1]; Homo sapiens, WI26VA4, 3 nM, read-out: Puromycin, % of control, average", "value": 98.4, "unit": "%"}, {"measurement": "activity at 0.01 µM", "setting": "WI‐26 VA4 cells [1]; [4]", "value": 94.8, "unit": "%"}, {"measurement": "activity at 0.01 µM", "setting": "WI‐26 VA4 cells [1]; [5]", "value": 86.6, "unit": "%"}, {"measurement": "activity at 0.03 µM", "setting": "WI‐26 VA4 cells [1]; [4]", "value": 111, "unit": "%"}, {"measurement": "activity at 0.03 µM", "setting": "WI‐26 VA4 cells [1]; [5]", "value": 117, "unit": "%"}, {"measurement": "activity at 0.1 µM", "setting": "WI‐26 VA4 cells [1]; [4]", "value": 88, "unit": "%"}, {"measurement": "activity at 0.1 µM", "setting": "WI‐26 VA4 cells [1]; [5]", "value": 94.6, "unit": "%"}, {"measurement": "activity at 0.3 µM", "setting": "WI‐26 VA4 cells [1]; Homo sapiens, WI26VA4, 300 nM, read-out: Puromycin, % of control, average", "value": 26.8, "unit": "%"}, {"measurement": "activity at 1 µM", "setting": "WI‐26 VA4 cells [1]; [4]", "value": 3.03, "unit": "%"}, {"measurement": "activity at 1 µM", "setting": "WI‐26 VA4 cells [1]; [5]", "value": 2.13, "unit": "%"}, {"measurement": "activity at 3 µM", "setting": "WI‐26 VA4 cells [1]; [4]", "value": 2.66, "unit": "%"}, {"measurement": "activity at 3 µM", "setting": "WI‐26 VA4 cells [1]; [5]", "value": 2.13, "unit": "%"}, {"measurement": "activity at 10 µM", "setting": "WI‐26 VA4 cells [1]; Homo sapiens, WI26VA4, 10000 nM, read-out: Puromycin, % of control, average", "value": 2.36, "unit": "%"}, {"measurement": "activity at 30 µM", "setting": "WI‐26 VA4 cells [1]; Homo sapiens, WI26VA4, 30000 nM, read-out: Puromycin, % of control, average", "value": 1.87, "unit": "%"}, {"measurement": "pIC50", "setting": "WI‐26 VA4 cells [1]; Homo sapiens, WI26VA4, log(inhibitor) vs. response, variable slope (four parameters), read-out: Puromycin, IC50 (best-fit value)", "value": 6.70}, {"measurement": "Puromycin, HillSlope (best-fit value)", "setting": "WI‐26 VA4 cells [1]; log(inhibitor) vs. response, variable slope (four parameters)", "value": -2.795}, {"measurement": "Puromycin, LogIC50 (best-fit value)", "setting": "WI‐26 VA4 cells [1]; log(inhibitor) vs. response, variable slope (four parameters), concentration in nM", "value": 2.301}, {"measurement": "TNT-luciferase LogIC50 (best-fit value)", "setting": "[2]", "value": 2.211}, {"measurement": "TNT-luciferase % of control, average", "setting": "[2]; 6 nM", "value": "106.95 % of control"}, {"measurement": "TNT-luciferase % of control", "setting": "[2]; 6 nM, 0.006 µM", "value": "109.98 % of control and 110.97 % of control and 123.24 % of control and 104.46 % of control and 101.11 % of control and 91.92 % of control"}, {"measurement": "TNT-luciferase % of control, average", "setting": "[2]; 10 nM", "value": "114.54 % of control"}, {"measurement": "TNT-luciferase % of control", "setting": "[2]; 10 nM, 0.01 µM", "value": "118.82 % of control and 112.93 % of control and 98.69 % of control and 124.51 % of control and 116.16 % of control"}, {"measurement": "TNT-luciferase % of control, average", "setting": "[2]; 20 nM", "value": "104.66 % of control"}, {"measurement": "TNT-luciferase % of control", "setting": "[2]; 20 nM, 0.02 µM", "value": "102.13 % of control and 100.65 % of control and 102.62 % of control and 110.31 % of control and 109.47 % of control and 102.79 % of control"}, {"measurement": "TNT-luciferase % of control, average", "setting": "[2]; 36 nM", "value": "110.74 % of control"}, {"measurement": "TNT-luciferase % of control", "setting": "[2]; 36 nM, 0.036 µM", "value": "113.42 % of control and 108.02 % of control and 129.62 % of control and 107.80 % of control and 102.79 % of control"}, {"measurement": "TNT-luciferase % of control, average", "setting": "[2]; 60 nM", "value": "109.84 % of control"}, {"measurement": "TNT-luciferase % of control", "setting": "[2]; 60 nM, 0.06 µM", "value": "112.44 % of control and 104.58 % of control and 103.60 % of control and 118.66 % of control and 113.65 % of control and 106.13 % of control"}, {"measurement": "TNT-luciferase % of control, average", "setting": "[2]; 100 nM", "value": "95.21 % of control"}, {"measurement": "TNT-luciferase % of control", "setting": "[2]; 100 nM, 0.1 µM", "value": "67.76 % of control and 70.21 % of control and 67.27 % of control and 122.01 % of control and 126.18 % of control and 117.83 % of control"}, {"measurement": "TNT-luciferase % of control, average", "setting": "[2]; 200 nM", "value": "33.45 % of control"}, {"measurement": "TNT-luciferase % of control, average", "setting": "[2]; 360 nM", "value": "4.01 % of control"}, {"measurement": "TNT-luciferase % of control, average", "setting": "[2]; 600 nM", "value": "0.26 % of control"}, {"measurement": "TNT-luciferase % of control, average", "setting": "[2]; 1000 nM", "value": "0.09 % of control"}, {"measurement": "TNT-luciferase % of control, average", "setting": "[2]; 2000 nM", "value": "0.02 % of control"}, {"measurement": "TNT-luciferase % of control", "setting": "[2]; 2000 nM, 2 µM", "value": "0.04 % of control"}, {"measurement": "pIC50", "setting": "[2]; read-out: TNT-luciferase IC50 (best-fit value)", "value": 6.79}, {"measurement": "pIC50", "setting": "WI‐26 VA4 cells [3]; WI26VA4, 72 h, read-out: IC50 for collagen level, TGF‐β 2 ng/ml, 72 h (Fig 1B)", "value": 7.82}, {"measurement": "IC50", "setting": "WI‐26 VA4 cells [3]; WI26VA4, read-out: Collagen IC50 (best-fit value), log(inhibitor) vs. response, variable slope (four parameters) (converted)", "value": 15.2, "unit": "nM"}]}]}
